What was measured:
[1] = compound: C=CC(=O)Nc1ccc(C(=O)Nc2[nH]nc3c2CN(C(=O)N[C@H](CN(C)C)c2ccccc2)C3(C)C)cc1 [YKL-5-124]
[2] = compound: CC1=C(N=C(N=C1N)[C@H](CC(=O)N)NC[C@@H](C(=O)N)N)C(=O)N[C@@H]([C@H](C2=CN=CN2)OC3C(C(C(C(O3)CO)O)O)OC4C(C(C(C(O4)CO)O)OC(=O)N)O)C(=O)N[C@H](C)[C@H]([C@H](C)C(=O)N[C@@H]([C@@H](C)O)C(=O)NCCC5=NC(=CS5)C6=NC(=CS6)C(=O)NCCC[S+](C)C)O [Bleomycin]; conditions: main component drawn
[3] = compound: CCC(=O)Nc1ccc(C(=O)Nc2ccc(Nc3ncc4c(n3)N(C)c3ccc(C)cc3C(=O)N4C)cc2)cc1 [FMF-03-145-1]
[4] = compound: CC[C@@]1(O)C(=O)OCc2c1cc1n(c2=O)Cc2cc3c(CN(C)C)c(O)ccc3nc2-1 [Topotecan]
[5] = compound: CO[C@H]1C[C@@H]2CC[C@@H](C)[C@@](O)(O2)C(=O)C(=O)N2CCCC[C@H]2C(=O)O[C@H]([C@H](C)C[C@@H]2CC[C@@H](OCCO)[C@H](OC)C2)CC(=O)[C@H](C)/C=C(\C)[C@@H](O)[C@@H](OC)C(=O)[C@H](C)C[C@H](C)/C=C/C=C/C=C/1C [Everolimus]
[6] = compound: COc1cc([C@@H]2c3cc4c(cc3[C@@H](O[C@@H]3O[C@@H]5CO[C@@H](C)O[C@H]5[C@H](O)[C@H]3O)[C@H]3COC(=O)[C@H]23)OCO4)cc(OC)c1O [Etoposide]
[7] = compound: COc1cccc(OCCCN)c1-c1cc(Nc2cnc(C#N)cn2)n[nH]1
[8] = compound: N.N.Cl[Pt]Cl [Cisplatin]
[9] = compound: CC(=O)c1c(C)c2cnc(Nc3ccc(N4CCN(CCOCCOCCOCCNC(=O)COc5cccc6c5C(=O)N(C5CCC(=O)NC5=O)C6=O)CC4)cn3)nc2n(C2CCCC2)c1=O [BSJ-03-123]; experiment: GR value, 72 h; higher = faster growth (1 = untreated, <0 = killing);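 note: breast cancer and non-malignant breast epithelial lines, nine half-log doses, viable cells counted by Hoechst and LIVE/DEAD dye imaging versus time-zero plates and DMSO controls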
[10] = compound: CCOc1cc2ncc(C#N)c(Nc3ccc(OCc4ccccn4)c(Cl)c3)c2cc1NC(=O)/C=C/CN(C)C [Neratinib/HKI272]; experiment: as above
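Throughout, for GR50, 72 h: breast cancer and non-malignant breast epithelial cell lines, Deep Dye Drop or Dye Drop imaging, nine half-log doses, GR normalized to time-zero plates and DMSO-only controls.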

Cell Line | GR50, 72 h [1] [µM] | GR50, 72 h [2] [µM] | GR50, 72 h [3] [µM] | GR50, 72 h [4] [µM] | GR50, 72 h [5] [µM] | GR50, 72 h [6] [µM] | GR50, 72 h [7] [µM] | GR50, 72 h [8] [µM] | GR value ([9]; 0.001 µM) [GR] | GR value ([9]; 0.003162 µM) [GR] | GR value ([9]; 0.01 µM) [GR] | GR value ([9]; 0.03162 µM) [GR] | GR value ([9]; 0.1 µM) [GR] | GR value ([9]; 0.3162 µM) [GR] | GR value ([9]; 1 µM) [GR] | GR value ([9]; 3.162 µM) [GR] | GR value ([9]; 10 µM) [GR] | GR value ([10]; 0.0003162 µM) [GR] | GR value ([10]; 0.001 µM) [GR] | GR value ([10]; 0.003162 µM) [GR] | GR value ([10]; 0.01 µM) [GR] | GR value ([10]; 0.03162 µM) [GR] | GR value ([10]; 0.1 µM) [GR] | GR value ([10]; 0.3162 µM) [GR] | GR value ([10]; 1 µM) [GR] | GR value ([10]; 3.162 µM) [GR]
HCC1143 | < 0.001 | 0.0482 | 0.00583 | 0.00941 | > 10 | 0.463 | 0.000582 | 0.837 | 0.905 | 0.89 | 0.906 | 0.858 | 0.861 | 0.797 | 0.613 | 0.481 | 0.028 | 0.964 | 0.951 | 0.941 | 0.864 | 0.876 | 0.761 | 0.654 | 0.458 | 0.0904
HCC1395 | 0.00123 | 0.104 | 0.00474 | 0.00275 | 0.00256 | 0.42 | 0.000487 | 0.491 | 0.847 | 0.925 | 0.769 | 0.767 | 0.774 | 0.692 | 0.572 | 0.534 | -0.188 | 1.05 | 1.07 | 1.14 | 1 | 1.06 | 0.916 | 0.741 | 0.521 | 0.0073
